Assay results as given in the supplement of paper PMC10307832.

Columns and labels:
Assay in all cases: relative viability (nuclei count vs DMSO), 5 days (fraction); higher = more cells survive
[1] = compound: CC(=O)c1c(C)c2cnc(Nc3ccc(N4CCNCC4)cn3)nc2n(C2CCCC2)c1=O [Palbociclib] + COc1cccc2cc(-c3nc([C@H]4CC[C@H](C(=O)O)CC4)n4ncnc(N)c34)[nH]c12 [OSI-027] (partner 0.5 µM)
How it was run: (§1)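 Cells from lung cancer lines were seeded into 1536-well plates and, one day later, dosed by pin tool. Treatments were either a single drug or a fixed dose of an anchor drug with five library-drug doses (not always all listed) in √10 steps. After 5 days, nuclei were stained in a one-step fixation (final 0.05% Triton X-100, 1% formaldehyde, 1 ug/ml Hoechst) and counted on 4× images, and relative viability is the treated-to-vehicle nuclei ratio, as the median of duplicate plates.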

[2] = compound: CC(=O)c1c(C)c2cnc(Nc3ccc(N4CCNCC4)cn3)nc2n(C2CCCC2)c1=O [Palbociclib] + NC(=O)Nc1cc(-c2cccc(F)c2)sc1C(=O)N[C@H]1CCCNC1 [AZD7762] (partner 0.2 µM)
How it was run: as §1

[3] = compound: CC(=O)c1c(C)c2cnc(Nc3ccc(N4CCNCC4)cn3)nc2n(C2CCCC2)c1=O [Palbociclib] + O=C(c1cc(Cc2n[nH]c(=O)c3ccccc23)ccc1F)N1CCN(C(=O)C2CC2)CC1 [Olaparib] (partner 8 µM)
How it was run: as §1

[4] = compound: CC(=O)c1c(C)c2cnc(Nc3ccc(N4CCNCC4)cn3)nc2n(C2CCCC2)c1=O [Palbociclib] + CS(=O)(=O)CCNCc1ccc(-c2ccc3ncnc(Nc4ccc(OCc5cccc(F)c5)c(Cl)c4)c3c2)o1 [Lapatinib] (partner 2 µM)
How it was run: as §1

| Cell Line | relative viability ([1]; first compound 0.01 µM) | relative viability ([1]; first compound 0.1 µM) | relative viability ([1]; first compound 0.3162 µM) | relative viability ([1]; first compound 1 µM) | relative viability ([2]; first compound 0.01 µM) | relative viability ([2]; first compound 0.03162 µM) | relative viability ([2]; first compound 0.1 µM) | relative viability ([2]; first compound 0.3162 µM) | relative viability ([2]; first compound 1 µM) | relative viability ([3]; first compound 0.01 µM) | relative viability ([3]; first compound 0.03162 µM) | relative viability ([3]; first compound 0.1 µM) | relative viability ([3]; first compound 0.3162 µM) | relative viability ([3]; first compound 1 µM) | relative viability ([4]; first compound 0.01 µM) | relative viability ([4]; first compound 0.1 µM) | relative viability ([4]; first compound 0.3162 µM) | relative viability ([4]; first compound 1 µM) | relative viability ([1]; first compound 0.03162 µM) | relative viability ([4]; first compound 0.03162 µM) |
| --- | --- | --- | --- | --- | --- | --- | --- | --- | --- | --- | --- | --- | --- | --- | --- | --- | --- | --- | --- | --- |
| LC-2-ad | 0.746 | 0.604 | 0.625 | 0.474 | 0.886 | 0.692 | 0.734 | 0.702 | 0.513 | 0.744 | 0.71 | 0.688 | 0.642 | 0.553 | 0.947 | 0.736 | 0.705 | 0.491 |  |  |
| LCLC-97TM1 | 0.586 | 0.349 | 0.219 | 0.221 | 0.391 |  | 0.252 | 0.199 | 0.152 | 0.326 |  | 0.308 | 0.311 | 0.262 | 0.891 | 0.894 | 0.697 | 0.304 | 0.353 |  |
| LK-2 | 0.208 | 0.182 | 0.212 | 0.162 | 0.472 | 0.297 | 0.374 | 0.338 | 0.303 | 0.896 | 0.656 | 0.625 | 0.585 | 0.556 | 1.09 | 0.642 | 1.23 | 0.842 |  |  |
| LOU-NH91 | 0.706 | 0.46 | 0.505 | 0.44 | 0.753 | 0.679 | 0.62 | 0.572 | 0.528 | 0.959 | 0.696 | 0.677 | 0.664 | 0.559 | 0.8 | 0.581 | 0.569 | 0.557 | 0.587 | 0.596 |
| LU99A | 0.305 | 0.221 | 0.238 | 0.223 | 0.405 |  | 0.277 | 0.34 | 0.27 | 0.24 |  | 0.281 | 0.26 | 0.271 | 0.936 | 0.922 | 0.853 | 0.577 | 0.274 | 0.539 |
| LXF-289 | 0.815 | 0.697 | 0.734 | 0.561 | 1.03 | 0.692 | 1.06 | 0.96 | 0.779 | 1.1 | 1.08 | 0.951 | 0.969 | 0.865 | 0.852 | 0.838 | 0.747 | 0.7 | 0.411 | 0.888 |
| NCI-H23 | 0.576 | 0.502 | 0.463 | 0.408 | 0.304 | 0.324 | 0.268 | 0.248 | 0.217 | 0.375 | 0.311 | 0.325 | 0.305 | 0.289 | 1 | 1.05 | 0.804 | 0.589 |  |  |
| NCI-H322M | 0.553 | 0.385 | 0.435 | 0.446 | 0.59 | 0.572 | 0.524 | 0.507 | 0.451 | 0.762 | 0.709 | 0.702 | 0.599 | 0.445 | 0.637 | 0.513 | 0.482 | 0.387 | 0.499 | 0.563 |
| NCI-H358 | 0.807 | 0.501 | 0.455 | 0.138 | 0.535 | 0.417 | 0.347 | 0.29 | 0.213 | 0.571 | 0.486 | 0.452 | 0.292 | 0.136 | 0.341 | 0.214 | 0.244 | 0.217 | 0.62 | 0.337 |
| NCI-H460 | 0.708 | 0.366 | 0.376 | 0.159 | 0.591 | 0.512 | 0.557 | 0.484 | 0.178 | 0.433 | 0.289 | 0.378 | 0.323 | 0.165 | 0.92 | 0.71 | 0.516 | 0.207 | 0.531 | 0.813 |
| NCI-H596 | 0.681 | 0.761 | 0.649 | 0.809 | 1.15 | 0.96 | 1.1 | 1.01 | 1.09 | 0.708 | 0.809 | 0.724 | 0.707 | 0.68 | 1.28 | 0.974 | 1.2 | 1.14 |  | 1.07 |
| NCI-H647 | 0.788 | 0.652 | 0.636 | 0.362 | 0.645 | 0.3 | 0.368 | 0.326 | 0.197 | 0.809 | 0.488 | 0.502 | 0.513 | 0.442 | 1.26 | 0.778 | 0.923 | 0.525 | 0.496 | 0.956 |
| NCI-H650 | 0.53 | 0.393 | 0.376 | 0.331 | 0.949 |  | 0.978 | 0.921 | 0.686 | 0.44 |  | 0.318 | 0.354 | 0.246 | 1.3 | 0.657 | 0.818 | 0.434 | 0.309 |  |
| NCI-H727 | 0.468 | 0.367 | 0.494 | 0.438 | 0.593 | 0.511 | 0.584 | 0.447 | 0.461 | 0.738 | 0.728 | 0.699 | 0.728 | 0.568 | 0.777 | 0.417 | 0.386 | 0.436 | 0.477 | 0.555 |
| NCI-H838 | 0.318 | 0.308 | 0.317 | 0.185 | 0.85 | 0.891 | 0.815 | 0.862 | 0.693 | 0.812 | 0.64 | 0.605 | 0.46 | 0.263 | 0.919 | 0.767 | 0.776 | 0.276 | 0.348 | 0.927 |
| NCI-H1355 | 0.45 | 0.33 | 0.282 | 0.24 | 0.672 | 0.572 | 0.733 | 0.697 | 0.571 | 0.796 | 0.734 | 0.673 | 0.65 | 0.621 | 0.949 | 0.901 | 0.793 | 0.523 | 0.359 |  |
| NCI-H1395 | 0.64 | 0.536 | 0.54 | 0.415 | 0.428 | 0.406 | 0.406 | 0.453 | 0.407 | 0.429 | 0.423 | 0.421 | 0.477 | 0.514 | 0.867 | 0.943 | 0.928 | 0.688 | 0.55 | 0.987 |
| NCI-H1437 | 0.747 | 0.711 | 0.65 | 0.291 | 1.15 | 1.09 | 1.03 | 1.09 | 0.73 | 0.64 | 0.599 | 0.564 | 0.489 | 0.369 | 0.819 | 0.693 | 0.67 | 0.36 | 0.734 | 0.755 |
| NCI-H1651 | 0.663 | 0.706 | 0.663 | 0.334 | 0.484 | 0.394 | 0.474 | 0.464 | 0.425 | 0.177 | 0.196 | 0.225 | 0.203 | 0.206 | 0.613 | 0.735 | 0.699 | 0.468 | 0.639 | 0.739 |
| NCI-H1666 | 0.831 | 0.682 | 0.747 | 0.471 | 0.881 | 0.58 | 0.842 | 0.74 | 0.684 | 0.769 | 0.708 | 0.705 | 0.664 | 0.708 | 0.644 | 0.419 | 0.474 | 0.384 | 0.672 | 0.559 |
| NCI-H1734 | 0.684 | 0.466 | 0.413 | 0.329 | 0.53 | 0.417 | 0.454 | 0.453 | 0.356 | 0.616 | 0.596 | 0.566 | 0.494 | 0.407 | 1.01 | 0.867 | 0.789 | 0.531 | 0.42 | 0.575 |
| NCI-H1755 | 0.677 | 0.555 | 0.633 | 0.391 | 0.476 | 0.402 | 0.436 | 0.451 | 0.421 | 0.875 | 0.841 | 0.812 | 0.788 | 0.664 | 1.07 | 0.929 | 0.878 | 0.617 | 0.496 | 0.604 |
| NCI-H1792 | 0.821 | 0.649 | 0.537 | 0.485 | 0.663 | 0.559 | 0.462 | 0.576 | 0.185 | 0.476 | 0.266 | 0.384 | 0.348 | 0.222 | 0.872 | 0.882 | 0.752 | 0.543 | 0.688 | 0.728 |
| NCI-H1793 | 0.262 | 0.238 | 0.223 | 0.186 | 0.518 | 0.393 | 0.549 | 0.528 | 0.277 | 1.03 | 0.628 | 0.832 | 0.81 | 0.501 | 0.68 | 0.462 | 0.602 | 0.355 |  | 0.619 |
| NCI-H1915 | 0.628 | 0.511 | 0.513 | 0.407 | 0.685 |  | 0.718 | 0.649 | 0.608 | 0.244 |  | 0.257 | 0.258 | 0.244 | 0.972 | 1.04 | 0.942 | 0.808 | 0.426 | 0.379 |
| NCI-H1944 | 0.461 | 0.335 | 0.325 | 0.213 | 0.557 | 0.44 | 0.504 | 0.428 | 0.375 | 0.411 | 0.397 | 0.404 | 0.341 | 0.339 | 0.798 | 0.772 | 0.758 | 0.402 | 0.336 | 0.487 |
| NCI-H1975 | 0.809 | 0.665 | 0.685 | 0.518 | 0.715 | 0.772 | 0.609 | 0.659 | 0.531 | 0.859 | 0.762 | 0.737 | 0.623 | 0.61 | 0.959 | 0.833 | 0.922 | 0.711 | 0.673 | 0.831 |
